Measurements reported in ChEMBL document CHEMBL1123599, “Diketopiperazines as a new class of platelet-activating factor inhibitors” (J Med Chem, 1987).

Organism: Oryctolagus cuniculus
Assay: Inhibition of rabbit platelet aggregation induced by PAF (Platelet activating factor)
Format: functional

Compound | IC50 [µM]
CSCC[C@H]1NC(=O)[C@@H]([C@@H](C)c2cccc3ccccc23)NC1=O | 1.9
CSC[C@H]1NC(=O)[C@@H](Cc2cn(C)c3ccccc23)NC1=O | 7.9
CSCC[C@H]1NC(=O)[C@@H]([C@H](C)c2cccc3ccccc23)NC1=O | 0.18
CSC[C@@H]1NC(=O)[C@H](Cc2cn(C)c3ccccc23)NC1=O | 250
CSCC[C@H]1NC(=O)[C@@H]([C@H](C)c2cn(C)c3ccccc23)NC1=O | 0.7

Further compounds by falling IC50, results first:

IC50 [µM] | Compound
140 | CSC[C@H]1NC(=O)[C@H](Cc2cn(C)c3ccccc23)NC1=O
36 | CSC[C@@H]1NC(=O)[C@@H](Cc2cn(C)c3ccccc23)NC1=O
3.6 | CSCC[C@H]1NC(=O)[C@@H]([C@@H](C)c2cn(C)c3ccccc23)NC1=O
2.3 | CSCCC1NC(=O)C(Cc2cn(C)c3ccccc23)NC1=O (stereo unspecified)
0.37 | CSC[C@@H]1N=C(C2=C(O)C=CC2)[C@H]([C@@H](C)[C@@H]2C(=O)N(C)c3ccccc32)NC1=O
0.32 | COc1cc([C@H]2CC[C@H](c3cc(OC)c(OC)c(OC)c3)O2)cc(OC)c1OC
